Data: paper PMC9863297, “Intermolecular Interactions of Edaravone in Aqueous Solutions of Ethaline and Glyceline Inferred from Experiments and Quantum Chemistry Computations” (Molecules, 2023)
Where two headings read alike, the source gives them in different places.

Assay: Edaravone solubility, slurry/shake-flask method with spectrophotometric determination at 243 nm
Type: physicochemical
Conditions: for solubility at 24 h: thermodynamic from solid, read-out: cE solubility concentration; for mole fraction solubility advantage of 1:2 composition over unimolar composition: DES involving ethylene glycol; for volume of saturated solution containing the recommended 60 mg: solubility at 298.15 K
Protocol: The first step in obtaining a calibration curve was the preparation of a stock solution of edaravone with a concentration of 2.3 mg/mL. This initial solution was successfully diluted in 10 mL volumetric flasks with methanol and the obtained solutions with decreasing concentrations were measured spectrophotometrically. […] Three separate curves were obtained, and the final curve resulted from averaging. […] The limits of detection (LOD) and quantification (LOQ) were calculated as 5.899∙10^−4 mg/mL and 1.770∙10^−3 mg/mL, respectively.
All of the studied deep eutectic solvents included choline chloride, while the second constituent was either glycerol or ethylene glycol. In order to prepare a DES formulation, choline chloride was mixed with the second compound in different molar ratios in sealed test tubes and placed in a water bath at 363.15 K until the formation of a uniform solution. The obtained DES were either used in their neat form or water was added to them in different proportions in order to form binary systems.
During the next stage, edaravone was added in excess amounts to the test tubes containing both neat DES and binary mixtures, which enabled us to obtain its saturated solutions. Samples prepared in such a manner were placed in an Orbital Shaker Incubator ES-20/60 from Biosan (Riga, Latvia) and incubated for 24 h at different temperatures, namely 298.15 K, 303.15 K, 308.15 K and 313.15 K. The temperature adjustment accuracy was 0.1 K and its variability in a 24 h cycle was ±0.5 K. Apart from heating, all of the samples were mixed at 60 rev/min. The increased viscosity and density of DES systems required the samples to be centrifuged at 1000 rev/min for 5 min with the use of EBA 20 centrifuge from Hettich (Tuttlingen, Germany) enabling the undissolved precipitate to remain on the bottom of the test tubes. Next, the samples were filtered using a syringe equipped with a PTFE syringe filer with 0.22 µm pore size. In order to avoid precipitation, the test tubes, syringes and filters were initially heated at a temperature equal to the one of the handled samples. Finally, small amounts of the obtained filtrate were transferred to test tubes filled with methanol and the diluted samples were measured spectrophotometrically. Additionally, for the determination of the mole fractions of edaravone, the density of the samples was measured by weighing a fixed volume of the solution in 10 mL volumetric flasks.
For determining the solubility of edaravone in the studied systems, the samples prepared, as described above, were measured spectrophotometrically using an A360 spectrophotometer from AOE Instruments (Shanghai, China). The spectra were recorded in the 190 nm to 500 nm wavelength range and 1 nm resolution. Methanol was used for the initial calibration of the spectrophotometer and for the dilution of the measured samples, which was conducted in order for the absorbance values to remain below 2.5. The absorbance values at 243 nm were taken into account and based on the calibration curve prepared earlier, the concentration of edaravone in the samples was determined, followed by its mole fractions. The values were averaged from three separate measurements.

solubility at 24 h (40 °C, aqueous with cosolvent or surfactant or cyclodextrin, water + GLE (ChCl:GL 1:2), x*GLE = 0.6, 313.15 K): 692 mg/mL
solubility at 24 h (40 °C, aqueous with cosolvent or surfactant or cyclodextrin, water + GLE (ChCl:GL 1:2), x*GLE = 0.8, 313.15 K): 602 mg/mL
solubility at 24 h (40 °C, organic solvent or mixture, neat DES choline chloride + glycerol (GLE) 1:1 molar ratio, 313.15 K): 398 mg/mL
solubility at 24 h (40 °C, organic solvent or mixture, neat DES choline chloride + glycerol (GLE) 1:2 molar ratio (x*GLE = 1.0), 313.15 K): 492 mg/mL
solubility at 24 h (40 °C, organic solvent or mixture, neat DES choline chloride + glycerol (GLE) 1:4 molar ratio, 313.15 K): 470 mg/mL
mole fraction solubility advantage of 1:2 composition over unimolar composition (298.15 K): 53%
mole fraction solubility advantage of 1:2 composition over unimolar composition (313.15 K): 21%
solubility at 24 h (deep eutectic solvent + water binary mixture, 25 °C, aqueous with cosolvent or surfactant or cyclodextrin, water + ETA (ChCl:EG 1:2), x*ETA = 0.8, 298.15 K): 363 mg/mL
solubility at 24 h (deep eutectic solvent + water binary mixture, 30 °C, aqueous with cosolvent or surfactant or cyclodextrin, water + ETA (ChCl:EG 1:2), x*ETA = 0.6, 303.15 K): 561 mg/mL
solubility at 24 h (deep eutectic solvent + water binary mixture, 30 °C, aqueous with cosolvent or surfactant or cyclodextrin, water + ETA (ChCl:EG 1:2), x*ETA = 0.8, 303.15 K): 452 mg/mL
solubility at 24 h (deep eutectic solvent + water binary mixture, 35 °C, aqueous with cosolvent or surfactant or cyclodextrin, water + ETA (ChCl:EG 1:2), x*ETA = 0.5, 308.15 K): 664 mg/mL
solubility at 24 h (deep eutectic solvent + water binary mixture, 35 °C, aqueous with cosolvent or surfactant or cyclodextrin, water + ETA (ChCl:EG 1:2), x*ETA = 0.6, 308.15 K): 670 mg/mL
solubility at 24 h (deep eutectic solvent + water binary mixture, 35 °C, aqueous with cosolvent or surfactant or cyclodextrin, water + ETA (ChCl:EG 1:2), x*ETA = 0.8, 308.15 K): 561 mg/mL
solubility at 24 h (deep eutectic solvent + water binary mixture, 40 °C, aqueous with cosolvent or surfactant or cyclodextrin, water + ETA (ChCl:EG 1:2), x*ETA = 0.5, 313.15 K): 744 mg/mL
solubility at 24 h (deep eutectic solvent + water binary mixture, 40 °C, aqueous with cosolvent or surfactant or cyclodextrin, water + ETA (ChCl:EG 1:2), x*ETA = 0.6, 313.15 K): 753 mg/mL
solubility at 24 h (deep eutectic solvent + water binary mixture, 40 °C, aqueous with cosolvent or surfactant or cyclodextrin, water + ETA (ChCl:EG 1:2), x*ETA = 0.8, 313.15 K): 655 mg/mL
solubility increase in optimal binary composition compared to neat DES (glycerol-containing systems, x*DES = 0.6, average): 28%
volume of saturated solution containing the recommended 60 mg (neat DES ETA): 0.20 mL
volume of saturated solution containing the recommended 60 mg (neat DES GLE): 0.32 mL
xE mole fraction solubility (neat DES choline chloride + ethylene glycol (ETA) 1:1 molar ratio, 298.15 K): 1031.93 (±62.91) mole fraction ∙10^4
xE mole fraction solubility (neat DES choline chloride + ethylene glycol (ETA) 1:1 molar ratio, 303.15 K): 1400.98 (±40.74) mole fraction ∙10^4
xE mole fraction solubility (neat DES choline chloride + ethylene glycol (ETA) 1:1 molar ratio, 308.15 K): 2089.82 (±49.36) mole fraction ∙10^4
xE mole fraction solubility (neat DES choline chloride + ethylene glycol (ETA) 1:1 molar ratio, 313.15 K): 2966.24 (±120.59) mole fraction ∙10^4
xE mole fraction solubility (neat DES choline chloride + ethylene glycol (ETA) 1:2 molar ratio (x*ETA = 1.0), 298.15 K): 1579.47 (±70.73) mole fraction ∙10^4
xE mole fraction solubility (neat DES choline chloride + ethylene glycol (ETA) 1:2 molar ratio (x*ETA = 1.0), 303.15 K): 2135.68 (±42.46) mole fraction ∙10^4
xE mole fraction solubility (neat DES choline chloride + ethylene glycol (ETA) 1:2 molar ratio (x*ETA = 1.0), 308.15 K): 2878.22 (±133.85) mole fraction ∙10^4
xE mole fraction solubility (neat DES choline chloride + ethylene glycol (ETA) 1:2 molar ratio (x*ETA = 1.0), 313.15 K): 3602.21 (±117.41) mole fraction ∙10^4
xE mole fraction solubility (neat DES choline chloride + ethylene glycol (ETA) 1:4 molar ratio, 298.15 K): 1306.68 (±55.75) mole fraction ∙10^4
xE mole fraction solubility (neat DES choline chloride + ethylene glycol (ETA) 1:4 molar ratio, 303.15 K): 1677.66 (±47.52) mole fraction ∙10^4
xE mole fraction solubility (neat DES choline chloride + ethylene glycol (ETA) 1:4 molar ratio, 308.15 K): 2434.99 (±114.12) mole fraction ∙10^4
xE mole fraction solubility (neat DES choline chloride + ethylene glycol (ETA) 1:4 molar ratio, 313.15 K): 3428.20 (±105.69) mole fraction ∙10^4
xE mole fraction solubility (neat DES choline chloride + glycerol (GLE) 1:1 molar ratio, 298.15 K): 786.83 (±3.34) mole fraction ∙10^4
xE mole fraction solubility (neat DES choline chloride + glycerol (GLE) 1:1 molar ratio, 303.15 K): 1173.65 (±39.25) mole fraction ∙10^4
xE mole fraction solubility (neat DES choline chloride + glycerol (GLE) 1:1 molar ratio, 308.15 K): 1615.31 (±40.69) mole fraction ∙10^4
xE mole fraction solubility (neat DES choline chloride + glycerol (GLE) 1:1 molar ratio, 313.15 K): 2429.30 (±72.71) mole fraction ∙10^4
xE mole fraction solubility (neat DES choline chloride + glycerol (GLE) 1:2 molar ratio (x*GLE = 1.0), 298.15 K): 1052.85 (±68.85) mole fraction ∙10^4
SMILES: CC1=NN(c2ccccc2)C(=O)C1 [edaravone, 5-methyl-2-phenyl-4H-pyrazol-3-one]
